This is an account of results in ChEMBL document CHEMBL1144976, “Biological activities of alpha-mangostin derivatives against acidic sphingomyelinase” (Bioorg Med Chem Lett, 2003).

As usually defined, the IC50 is the concentration that inhibits the measured activity by half. A higher IC50 goes with a need for much substance.

The target of assay [1] is T1, Sphingomyelin phosphodiesterase (Homo sapiens, UniProt P17405).
T1 sequence (P17405 whole entry): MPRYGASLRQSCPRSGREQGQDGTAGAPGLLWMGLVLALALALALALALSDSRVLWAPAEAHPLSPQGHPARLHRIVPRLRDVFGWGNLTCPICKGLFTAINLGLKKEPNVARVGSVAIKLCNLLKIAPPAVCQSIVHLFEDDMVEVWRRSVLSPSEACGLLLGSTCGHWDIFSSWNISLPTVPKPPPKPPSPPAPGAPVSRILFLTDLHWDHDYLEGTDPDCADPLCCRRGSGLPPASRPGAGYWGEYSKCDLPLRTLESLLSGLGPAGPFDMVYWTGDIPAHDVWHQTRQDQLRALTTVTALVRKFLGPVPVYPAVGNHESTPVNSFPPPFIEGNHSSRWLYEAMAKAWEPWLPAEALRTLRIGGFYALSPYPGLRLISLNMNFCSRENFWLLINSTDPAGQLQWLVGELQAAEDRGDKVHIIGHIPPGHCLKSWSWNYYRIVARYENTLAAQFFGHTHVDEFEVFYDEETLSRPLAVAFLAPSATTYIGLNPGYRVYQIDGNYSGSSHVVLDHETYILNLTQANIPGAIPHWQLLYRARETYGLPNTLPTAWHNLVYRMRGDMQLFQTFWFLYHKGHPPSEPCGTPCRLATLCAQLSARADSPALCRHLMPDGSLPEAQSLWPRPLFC
Description: Inhibitory activity against Acid sphingomyelinase.

Assay [2] deals with T2, Sphingomyelin phosphodiesterase 2 (Homo sapiens, UniProt O60906).
T2 sequence (O60906 whole entry): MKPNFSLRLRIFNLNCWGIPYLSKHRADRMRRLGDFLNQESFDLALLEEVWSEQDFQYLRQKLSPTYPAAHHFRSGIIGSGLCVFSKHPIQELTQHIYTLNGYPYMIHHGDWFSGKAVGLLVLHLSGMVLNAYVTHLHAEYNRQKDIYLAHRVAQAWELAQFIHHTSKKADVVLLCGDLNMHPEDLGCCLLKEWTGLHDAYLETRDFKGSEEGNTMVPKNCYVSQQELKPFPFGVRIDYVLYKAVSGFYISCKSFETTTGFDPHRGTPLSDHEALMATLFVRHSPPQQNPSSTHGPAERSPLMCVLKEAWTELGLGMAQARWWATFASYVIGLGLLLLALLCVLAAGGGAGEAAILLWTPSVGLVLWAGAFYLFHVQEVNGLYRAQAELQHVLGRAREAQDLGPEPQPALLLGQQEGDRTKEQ
Description: Inhibitory activity against NSMase (neutral sphingomyelinase).

Consider `COc1cc2c(=O)c3c(O)c(CC=C(C)C)c(O)cc3oc2cc1O`, for which the IC50 was 101 µM in assay [1] and greater than 292 µM in assay [2].
On to `COc1cc(C(=O)c2c(O)cc(O)c(CC=C(C)C)c2O)c(O)cc1O`, for which the half-maximal inhibitory concentration (IC50) in assay [1] is 66.6 µM; in assay [2] it was 201 µM.
For `COc1c(O)cc(O)c(C(=O)c2c(O)cc(O)c(CC=C(C)C)c2O)c1CC=C(C)C` the same measures were 38.5 µM and 113 µM.
For `COc1c(O)cc2oc3cc(O)cc(O)c3c(=O)c2c1CC=C(C)C` the same measures were 15.3 µM and 26 µM.
For `COc1c(O)cc(O)c(C(=O)c2c(O)cc(O)cc2O)c1CC=C(C)C` the same measures were 14.7 µM and 28.3 µM.
In the case of `COc1c(O)cc2oc3cc(O)c(CC=C(C)C)c(O)c3c(=O)c2c1CC=C(C)C` [MANGOSTIN], the IC50 in assay [1] was 12.5 µM; in assay [2], 113 µM.
